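Step 1: Grow cells in 96-well plates. Step 2: Expose to compound for 48 hours at 5 concentrations. Step 3: Interpolate endpoints linearly; if unreached, use highest concentration. TGI is the concentration that stops growth completely.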
How the values were obtained:
Experiment in all cases: inhibition of tumour cell growth, NCI panel, 48 h
DMS 273 small cell lung = tested on: DMS 273 small cell lung
NCI-H23 lung = tested on: NCI-H23 lung
SNB-78 CNS = tested on: SNB-78 CNS
HOP-18 NSCLC = tested on: HOP-18 NSCLC
OVCAR-3 ovarian = tested on: OVCAR-3 ovarian
DLD-1 colon = tested on: DLD-1 colon
OVCAR-4 ovarian = tested on: OVCAR-4 ovarian
SNB-19 CNS = tested on: SNB-19 CNS
U251 CNS = tested on: U251 CNS
OVCAR-5 ovarian = tested on: OVCAR-5 ovarian
HT29 colon = tested on: HT29 colon
MOLT-4 leukemia = tested on: MOLT-4 leukemia
KM20L2 colon = tested on: KM20L2 colon
SW-620 colon = tested on: SW-620 colon
UO-31 renal = tested on: UO-31 renal
CAKI-1 renal = tested on: CAKI-1 renal
HCC-2998 colon = tested on: HCC-2998 colon
XF 498 CNS = tested on: XF 498 CNS
EKVX NSCLC = tested on: EKVX NSCLC
SNB-75 CNS = tested on: SNB-75 CNS
SF-539 CNS = tested on: SF-539 CNS
RXF 393 renal = tested on: RXF 393 renal
K-562 leukemia = tested on: K-562 leukemia
ACHN renal = tested on: ACHN renal
MALME-3M melanoma = tested on: MALME-3M melanoma
SF-268 CNS = tested on: SF-268 CNS
UACC-257 melanoma = tested on: UACC-257 melanoma
HL-60(TB) leukemia = tested on: HL-60(TB) leukemia
TK-10 renal = tested on: TK-10 renal
KM12 colon = tested on: KM12 colon
HCT-15 colon = tested on: HCT-15 colon
SK-MEL-28 melanoma = tested on: SK-MEL-28 melanoma
M14 melanoma = tested on: M14 melanoma
LOX IMVI melanoma = tested on: LOX IMVI melanoma
LXFL 529 NSCLC = tested on: LXFL 529 NSCLC
HOP-62 NSCLC = tested on: HOP-62 NSCLC
COLO 205 colon = tested on: COLO 205 colon
NCI-H522 lung = tested on: NCI-H522 lung
UACC-62 melanoma = tested on: UACC-62 melanoma
SK-MEL-5 melanoma = tested on: SK-MEL-5 melanoma
SK-OV-3 ovarian = tested on: SK-OV-3 ovarian
786-0 renal = tested on: 786-0 renal
NCI-H226 lung = tested on: NCI-H226 lung
M19-MEL melanoma = tested on: M19-MEL melanoma
A549 NSCLC = tested on: A549 NSCLC
IGROV1 ovarian = tested on: IGROV1 ovarian
HCT-116 colon = tested on: HCT-116 colon
SF-295 CNS = tested on: SF-295 CNS
OVCAR-8 ovarian = tested on: OVCAR-8 ovarian
SR leukemia = tested on: SR leukemia
SN12C renal = tested on: SN12C renal
CCRF-CEM leukemia = tested on: CCRF-CEM leukemia
SK-MEL-2 melanoma = tested on: SK-MEL-2 melanoma
DMS 114 small cell lung = tested on: DMS 114 small cell lung
NCI-H460 lung = tested on: NCI-H460 lung
HOP-92 NSCLC = tested on: HOP-92 NSCLC
A498 renal = tested on: A498 renal
RPMI-8226 leukemia = tested on: RPMI-8226 leukemia

Q: What does the source list for `Cc1ccc(C2=Nc3ccccc3NC(=O)C2)cc1`?
A: TGI (DMS 273 small cell lung): > 100 µM; TGI (NCI-H23 lung): > 100 µM; TGI (SNB-78 CNS): > 100 µM; TGI (HOP-18 NSCLC): > 100 µM; TGI (OVCAR-3 ovarian): > 100 µM; TGI (DLD-1 colon): > 100 µM; TGI (OVCAR-4 ovarian): > 100 µM; TGI (SNB-19 CNS): > 100 µM; TGI (U251 CNS): > 100 µM; TGI (OVCAR-5 ovarian): > 100 µM; TGI (HT29 colon): > 100 µM; TGI (MOLT-4 leukemia): > 100 µM; TGI (KM20L2 colon): > 100 µM; TGI (SW-620 colon): > 100 µM; TGI (UO-31 renal): > 100 µM; TGI (CAKI-1 renal): > 100 µM; TGI (HCC-2998 colon): > 100 µM; TGI (XF 498 CNS): 93.4 µM; TGI (EKVX NSCLC): > 100 µM; TGI (SNB-75 CNS): > 100 µM; TGI (SF-539 CNS): > 100 µM; TGI (RXF 393 renal): > 100 µM; TGI (K-562 leukemia): > 100 µM; TGI (ACHN renal): > 100 µM; TGI (MALME-3M melanoma): > 100 µM; TGI (SF-268 CNS): > 100 µM; TGI (UACC-257 melanoma): > 100 µM; TGI (HL-60(TB) leukemia): > 100 µM; TGI (TK-10 renal): > 100 µM; TGI (KM12 colon): > 100 µM; TGI (HCT-15 colon): > 100 µM; TGI (SK-MEL-28 melanoma): > 100 µM; TGI (M14 melanoma): > 100 µM; TGI (LOX IMVI melanoma): > 100 µM; TGI (LXFL 529 NSCLC): > 100 µM; TGI (HOP-62 NSCLC): > 100 µM; TGI (COLO 205 colon): > 100 µM; TGI (NCI-H522 lung): > 100 µM; TGI (UACC-62 melanoma): > 100 µM; TGI (SK-MEL-5 melanoma): > 100 µM; TGI (SK-OV-3 ovarian): > 100 µM; TGI (786-0 renal): > 100 µM; TGI (NCI-H226 lung): > 100 µM; TGI (M19-MEL melanoma): > 100 µM; TGI (A549 NSCLC): > 100 µM; TGI (IGROV1 ovarian): > 100 µM; TGI (HCT-116 colon): > 100 µM; TGI (SF-295 CNS): > 100 µM; TGI (OVCAR-8 ovarian): > 100 µM; TGI (SR leukemia): > 100 µM; TGI (SN12C renal): > 100 µM; TGI (CCRF-CEM leukemia): > 100 µM; TGI (SK-MEL-2 melanoma): > 100 µM; TGI (DMS 114 small cell lung): > 100 µM; TGI (NCI-H460 lung): > 100 µM; TGI (HOP-92 NSCLC): > 100 µM; TGI (A498 renal): > 100 µM

Q: For `CCCC(=O)N[C@@H](Cc1cc(I)c(O)c(I)c1)C(=O)NCCCNCCCCNCCCNC(=O)[C@@H](N)CCCN=C(N)N`, which TGI (DMS 273 small cell lung) is on record?
A: Its TGI is over 100 µM.

Q: What about the TGI (NCI-H23 lung) of the same compound?
A: Its TGI is over 100 µM.

Q: What about the TGI (OVCAR-3 ovarian) of the same compound?
A: Its TGI is over 100 µM.

Q: What about the TGI (RPMI-8226 leukemia) of the same compound?
A: Its TGI is over 100 µM.

Q: And the TGI (SNB-19 CNS)?
A: Its TGI is over 100 µM.

Q: What about the TGI (U251 CNS) of the same compound?
A: The TGI was over 100 µM.

Q: And the TGI (HT29 colon)?
A: Its TGI is over 100 µM.

Q: What about the TGI (MOLT-4 leukemia) of the same compound?
A: Its TGI is over 100 µM.

Q: What about the TGI (KM20L2 colon) of the same compound?
A: Its TGI is over 100 µM.

Q: And the TGI (SW-620 colon)?
A: Its TGI is over 100 µM.

Q: What about the TGI (UO-31 renal) of the same compound?
A: Its TGI is over 100 µM.

Q: What about the TGI (HCC-2998 colon) of the same compound?
A: Its TGI is over 100 µM.

Q: What about the TGI (XF 498 CNS) of the same compound?
A: The TGI was over 100 µM.

Q: What about the TGI (EKVX NSCLC) of the same compound?
A: The TGI was over 100 µM.

Q: What about the TGI (SF-539 CNS) of the same compound?
A: Its TGI is over 100 µM.

Q: What about the TGI (RXF 393 renal) of the same compound?
A: The TGI was over 100 µM.

Q: And the TGI (K-562 leukemia)?
A: The TGI was over 100 µM.

Q: What about the TGI (ACHN renal) of the same compound?
A: Its TGI is over 100 µM.

Q: And the TGI (MALME-3M melanoma)?
A: The TGI was over 100 µM.

Q: What about the TGI (UACC-257 melanoma) of the same compound?
A: Its TGI is over 100 µM.

Q: What about the TGI (HL-60(TB) leukemia) of the same compound?
A: The TGI was over 100 µM.

Q: And the TGI (TK-10 renal)?
A: The TGI was over 100 µM.

Q: And the TGI (KM12 colon)?
A: The TGI was over 100 µM.

Q: And the TGI (HCT-15 colon)?
A: The TGI was over 100 µM.

Q: And the TGI (SK-MEL-28 melanoma)?
A: The TGI was over 100 µM.

Q: And the TGI (M14 melanoma)?
A: Its TGI is over 100 µM.

Q: And the TGI (LOX IMVI melanoma)?
A: The TGI was over 100 µM.

Q: What about the TGI (LXFL 529 NSCLC) of the same compound?
A: The TGI was over 100 µM.

Q: What about the TGI (HOP-62 NSCLC) of the same compound?
A: Its TGI is over 100 µM.

Q: And the TGI (COLO 205 colon)?
A: Its TGI is over 100 µM.

Q: What about the TGI (NCI-H522 lung) of the same compound?
A: The TGI was over 100 µM.

Q: And the TGI (UACC-62 melanoma)?
A: The TGI was over 100 µM.

Q: What about the TGI (SK-MEL-5 melanoma) of the same compound?
A: Its TGI is over 100 µM.

Q: What about the TGI (786-0 renal) of the same compound?
A: The TGI was over 100 µM.

Q: And the TGI (NCI-H226 lung)?
A: Its TGI is over 100 µM.

Q: And the TGI (M19-MEL melanoma)?
A: Its TGI is over 100 µM.

Q: And the TGI (A549 NSCLC)?
A: The TGI was over 100 µM.

Q: What about the TGI (IGROV1 ovarian) of the same compound?
A: Its TGI is over 100 µM.

Q: And the TGI (HCT-116 colon)?
A: The TGI was over 100 µM.

Q: What about the TGI (OVCAR-8 ovarian) of the same compound?
A: The TGI was over 100 µM.

Q: What about the TGI (SR leukemia) of the same compound?
A: Its TGI is over 100 µM.

Q: What about the TGI (SN12C renal) of the same compound?
A: The TGI was over 100 µM.

Q: And the TGI (CCRF-CEM leukemia)?
A: The TGI was over 100 µM.

Q: And the TGI (DMS 114 small cell lung)?
A: Its TGI is over 100 µM.

Q: And the TGI (NCI-H460 lung)?
A: The TGI was over 100 µM.

Source: PubChem BioAssay (NCI)
